Source: publication PMC5997364, “OG716: Designing a fit-for-purpose lantibiotic for the treatment of Clostridium difficile infections” (PLoS ONE, 2018)
In brackets after ≈: the same amount, converted by molar mass. Several values for one entry are separate records, joined by “and”; a condition that tells them apart may be missing. Identical values can stand only once. Like-named read-outs stand apart in the source and are kept apart here.

Assays:
[1] = system: C. difficile; assay: microbe, parasite or virus in culture; type: cell-based, Clostridium difficile
Procedure: MIC testing for C. difficile was performed by Eurofins Panlabs Taiwan LTD based on modifications from the CLSI M11-A8 broth dilution method for Bacteroides fragilis susceptibility testing. Briefly, Reinforced Clostridial Medium (RCM) was pre-reduced by over-night incubation in an anaerobic chamber (80% N2, 10% CO2, and 10% H2) prior to use. MU1140 and variants were dissolved in 100% DMSO, diluted by 2-fold serial dilution in 100% DMSO, for a total of 11 concentrations. A 4 μL aliquot of each dilution was added to 96 μL RCM in wells of a 96 well plate using a Biomek FX instrument (Beckman Coulter, USA), followed by the addition of C. difficile suspension, in RCM, 100 μL/well. The final bacterial count was 2 x 10^5 to 1 x 10^6 colony forming units/mL, in 200 μL per assay well. […] Assay plates were incubated at 35°C for 46 to 48 hr in the anaerobic chamber (A35 Anaerobic Workstation, Don Whitley, UK). Following incubation, test plates were visually examined and each well was scored for growth then the MIC was recorded as the lowest concentration that results in complete inhibition of growth. Each test substance was evaluated in duplicate. Vehicle-control and vancomycin were used as blank and positive controls, respectively. The MIC values of the vancomycin controls were consistent with the historical data against test strains (data not shown).

[2] = 1.0 mg/mL in water
[3] = Solubility 5% D-mannitol, 5% D-mannitol in water, visual assessment
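Throughout, for Forced degradation Δ Conc: purity and concentration determined by HPLC on aqueous solutions kept in a stability chamber, with samples analyzed at day 0 and after incubation.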
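Throughout, for Forced degradation Δ Purity: purity and concentration determined by HPLC on aqueous solutions kept in a stability chamber, with samples analyzed at day 0 and after incubation.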

| Structure (SMILES) | MIC 50 [1] | MIC 90 [1] | MIC Mode [1] | MIC Range [1] | Minimum Inhibitory Concentration C. difficile 103-1 [1] | Minimum Inhibitory Concentration C. difficile 107-1 [1] | Minimum Inhibitory Concentration C. difficile ATCC 9689 [1] | Minimum Inhibitory Concentration C. difficile ATCC 43597 [1] | Minimum Inhibitory Concentration C. difficile ATCC BAA-1805 [1] | Minimum Inhibitory Concentration C. difficile ATCC BAA-1808 [1] | Minimum Inhibitory Concentration C. difficile ATCC BAA-1874 [1] | Minimum Inhibitory Concentration C. difficile ATCC BAA-1875 [1] | Forced degradation Δ Conc ([2]; 2 Days at 37°C) | Forced degradation Δ Purity ([2]; 2 Days at 37°C) | Forced degradation Δ Conc ([2]; 2 Days at +50°C) | Forced degradation Δ Purity ([2]; 2 Days at +50°C) | Forced degradation Δ Conc ([2]; 7 Days at 37°C) | Forced degradation Δ Purity ([2]; 7 Days at 37°C) | Forced degradation Δ Conc ([2]; 7 Days at +50°C) | Forced degradation Δ Purity ([2]; 7 Days at +50°C) | further results |
| --- | --- | --- | --- | --- | --- | --- | --- | --- | --- | --- | --- | --- | --- | --- | --- | --- | --- | --- | --- | --- | --- |
| C=C1NC(=O)[C@H](Cc2c[nH]c3ccccc23)NC(=O)[C@H](NC(=O)[C@H](CCCCN)NC(=O)[C@@H](N)CC(C)C)CSC[C@@H](C(=O)N[C@H]2C(=O)N3CCC[C@H]3C(=O)NCC(=O)N[C@H](C(=O)N[C@@H](C)C(=O)N[C@@H](CC(=O)O)C(=O)N/C(=C\C)C(=O)NCC(=O)N[C@@H]3CSC[C@@H]4NC(=O)[C@H](Cc5ccc(O)cc5)NC(=O)[C@@H](CS/C=C\NC4=O)NC(=O)[C@H](CC(N)=O)NC(=O)[C@H](Cc4ccccc4)NC3=O)CS[C@H]2C)NC(=O)[C@H](CC(C)C)NC1=O [OG705] | 1 µg/mL (≈ 0.457 µM) | 2 µg/mL (≈ 0.913 µM) | 1 µg/mL (≈ 0.457 µM) | 0.5 to 2 µg/mL | 0.5 µg/mL | 2 µg/mL | 1 µg/mL | 1 µg/mL | 1 µg/mL | 1 µg/mL | 1 µg/mL | 1 µg/mL | -11.4% and -11% | -0.29% | -11% | -1.32% | -12.3% and -12% | -0.61% | -26% | -3.22% |  |
| C=C1NC(=O)[C@H](Cc2c[nH]c3ccccc23)NC(=O)[C@H](NC(=O)[C@H](CCCCN)NC(=O)[C@@H](N)[C@@H](C)CC)CSC[C@@H](C(=O)N[C@H]2C(=O)N3CCC[C@H]3C(=O)NCC(=O)N[C@H](C(=O)N[C@@H](C)C(=O)N[C@@H](CC(N)=O)C(=O)N/C(=C\C)C(=O)NCC(=O)N[C@@H]3CSC[C@@H]4NC(=O)[C@H](Cc5ccc(O)cc5)NC(=O)[C@@H](CS/C=C\NC4=O)NC(=O)[C@H](CC(N)=O)NC(=O)[C@H](Cc4ccccc4)NC3=O)CS[C@H]2C)NC(=O)[C@H](CC(C)C)NC1=O [OG706] | 0.5 µg/mL (≈ 0.228 µM) | 1 µg/mL (≈ 0.457 µM) | 0.5 µg/mL (≈ 0.228 µM) | 0.125 to 1 µg/mL | 0.125 µg/mL | 1 µg/mL | 0.5 µg/mL | 0.25 µg/mL | 0.25 µg/mL | 0.5 µg/mL | 0.5 µg/mL | 0.5 µg/mL | -11.3% and -11% | -1.15% | -23% | -8.05% | -20% | -6.64% | -50.1% and -50% | -21.46% | solubility [3]: 18 to 24 mg/mL (≈ 8220 to 11000 µM) |
| C=C1NC(=O)[C@H](Cc2c[nH]c3ccccc23)NC(=O)[C@H](NC(=O)[C@H](CCCCN)NC(=O)[C@@H](N)CC(C)C)CSC[C@@H](C(=O)N[C@H]2C(=O)N3CCC[C@H]3C(=O)NCC(=O)N[C@H](C(=O)N[C@@H](C)C(=O)N[C@@H](CC(N)=O)C(=O)N/C(=C\C)C(=O)NCC(=O)N[C@@H]3CSC[C@@H]4NC(=O)[C@H](Cc5ccc(O)cc5)NC(=O)[C@@H](CS/C=C\NC4=O)NC(=O)[C@H](CC(N)=O)NC(=O)[C@H](Cc4ccccc4)NC3=O)CS[C@H]2C)NC(=O)[C@H](CC(C)C)NC1=O [OG712] | 0.25 µg/mL (≈ 0.114 µM) | 0.5 µg/mL (≈ 0.228 µM) | 0.25 µg/mL (≈ 0.114 µM) | 0.125 to 0.5 µg/mL | 0.125 µg/mL | 0.5 µg/mL | 0.5 µg/mL | 0.25 µg/mL | 0.25 µg/mL | 0.25 µg/mL | 0.25 µg/mL | 0.5 µg/mL | -4.6% and -5% | -0.21% | -8.7% and -9% | -3.01% | -9.3% and -9% | -4.63% | -45.2% and -45% |  | solubility [3]: 12 mg/mL (≈ 5480 µM) |
| C=C1NC(=O)[C@H](Cc2c[nH]c3ccccc23)NC(=O)[C@H](NC(=O)[C@H](CCCCN)NC(=O)[C@@H](N)CC(C)C)CSC[C@@H](C(=O)N[C@H]2C(=O)N3CCC[C@H]3C(=O)NCC(=O)N[C@H](C(=O)N[C@@H](C)C(=O)N[C@@H](C)C(=O)N/C(=C\C)C(=O)NCC(=O)N[C@@H]3CSC[C@@H]4NC(=O)[C@H](Cc5ccc(O)cc5)NC(=O)[C@@H](CS/C=C\NC4=O)NC(=O)[C@H](CC(N)=O)NC(=O)[C@H](Cc4ccccc4)NC3=O)CS[C@H]2C)NC(=O)[C@H](CC(C)C)NC1=O [OG713] | 0.5 µg/mL (≈ 0.233 µM) | 0.5 µg/mL (≈ 0.233 µM) | 0.5 µg/mL (≈ 0.233 µM) | 0.25 to 0.5 µg/mL | 0.25 µg/mL | 0.5 µg/mL | 0.5 µg/mL | 0.5 µg/mL | 0.25 µg/mL | 0.5 µg/mL | 0.5 µg/mL | 0.5 µg/mL | -11.9% and -12% | -0.06% | -16.9% and -17% | -1.51% | -8.8% and -9% | -0.56% | -41% | -6.98% |  |
| C=C1NC(=O)[C@H](Cc2c[nH]c3ccccc23)NC(=O)[C@H](NC(=O)[C@H](CCCCN)NC(=O)[C@@H](N)C(C)C)CSC[C@@H](C(=O)N[C@H]2C(=O)N3CCC[C@H]3C(=O)NCC(=O)N[C@H](C(=O)N[C@@H](C)C(=O)N[C@@H](CC(N)=O)C(=O)N/C(=C\C)C(=O)NCC(=O)N[C@@H]3CSC[C@@H]4NC(=O)[C@H](Cc5ccc(O)cc5)NC(=O)[C@@H](CS/C=C\NC4=O)NC(=O)[C@H](CC(N)=O)NC(=O)[C@H](Cc4ccccc4)NC3=O)CS[C@H]2C)NC(=O)[C@H](CC(C)C)NC1=O [OG716] | 0.25 µg/mL (≈ 0.115 µM) | 0.5 µg/mL (≈ 0.23 µM) | 0.5 µg/mL (≈ 0.23 µM) | 0.25 to 0.5 µg/mL | 0.25 µg/mL | 0.5 µg/mL | 0.5 µg/mL | 0.25 µg/mL | 0.25 µg/mL | 0.25 µg/mL | 0.5 µg/mL | 0.5 µg/mL | -7.4% and -7% | -0.31% | -16.9% and -17% | -3.67% | -14.8% and -15% | -5.20% | -47% | -19.77% | solubility [3]: 12 to 18 mg/mL (≈ 5520 to 8280 µM) |
| C=C1NC(=O)[C@H](Cc2c[nH]c3ccccc23)NC(=O)[C@H](NC(=O)[C@H](CCCCN)NC(=O)[C@@H](N)[C@@H](C)CC)CSC[C@@H](C(=O)N[C@H]2C(=O)N3CCC[C@H]3C(=O)NCC(=O)N[C@H](C(=O)N[C@@H](C)C(=O)N[C@@H](CC(N)=O)C(=O)N/C(=C\C)C(=O)NCC(=O)N[C@@H]3CSC[C@@H]4NC(=O)[C@H](Cc5ccccc5)NC(=O)[C@@H](CS/C=C\NC4=O)NC(=O)[C@H](CC(N)=O)NC(=O)[C@H](Cc4ccccc4)NC3=O)CS[C@H]2C)NC(=O)[C@H](CC(C)C)NC1=O [OG718] | 0.5 µg/mL (≈ 0.23 µM) | 1 µg/mL (≈ 0.46 µM) | 0.5 µg/mL (≈ 0.23 µM) | 0.25 to 1 µg/mL | 0.25 µg/mL | 0.5 µg/mL | 0.5 µg/mL | 0.5 µg/mL | 0.5 µg/mL | 0.25 µg/mL | 0.5 µg/mL | 1 µg/mL | -9.1% and -9% | -2.07% | -29.4% and -29% | -4.90% | -21% | -7.42% | -43.8% and -44% | -12.84% | solubility [3]: > 24 mg/mL |
